Experimental data from the METLIN SMRT retention time set (Domingo-Almenara et al. 2019).

Assay: gradient 5% acetonitrile 3 min, to 50% in 2 min, to 85% in 15 min, held 3 min, 100 µL/min
Conditions: column: Zorbax Extend-C18 2.1 x 50 mm; eluents: water / acetonitrile, 0.1% formic acid
Outline: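 The mobile phases were water and acetonitrile, each with 0.1% formic acid, pumped at 100 μL/min through a Zorbax Extend-C18 column (2.1 × 50 mm, 1.8 μm). Pure standards were injected as mixtures of ~100 molecules and detected by a quadrupole time-of-flight mass spectrometer in positive and negative ionization mode. Retention time came from computationally picked adduct peaks, each inspected by hand.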

| RP-LC retention time | Structure (SMILES) |
| --- | --- |
| 1290 s | Cc1ccccc1-c1noc(C2CCCN2S(=O)(=O)c2ccc(Cl)cc2C)n1 (stereo not drawn) |
| 594 s | CCN1CCN(c2ccc(NC(=O)C(C)(C)C)c(C(=O)O)c2)CC1 |
| 621 s | Cc1ccc2c(=O)c3c([nH]c2c1C)CCN(CC(=O)NCc1ccccc1F)C3 |
| 768 s | CC(C)N1CCn2c(nc3cc(C(=O)NCc4ccccc4C(F)(F)F)ccc32)C1=O |
| 588 s | Cc1nc(NCCNC(=O)c2cccc(C(F)(F)F)c2)cc(N2CCOCC2)n1 |
| 658 s | COc1ccc(-c2cc(N3CCN(C(=O)NCCC(C)C)CC3)ncn2)cc1OC |
| 567 s | CCn1cc(CCN2CCC(C(=O)NC(C)C)CC2)c2cccnc21 |
| 728 s | O=C(NC1CCCCC1NC(=O)c1cccs1)c1cccs1 (stereo not drawn) |
| 743 s | CCn1nc(C)c(CCN(C)C(=O)c2cc3c(s2)N(C)CCCC3)c1C |
| 555 s | OC[C@@H]1CN(C2CCSCC2)C[C@H]1c1nc(-c2cccnc2)no1 |
| 855 s | COc1cccc(CNC(=O)C2(C)CCCN(C(=O)Nc3cccc(C)c3C)C2)c1 (stereo not drawn) |
| 613 s | Cc1ccc(C(=O)N(C)C2CCc3nnc(C)n3CC2)s1 (stereo not drawn) |
| 738 s | COCCc1noc(C2CN(C(=O)C3(c4ccc(OC)cc4)CC3)C2)n1 |
| 847 s | Cc1cc(Cl)ccc1NC(=O)C1CCN(c2c(C(=O)N3CCOCC3)cnc3snc(C)c23)CC1 |
| 755 s | Cc1cc(C(=O)N2CCCCCC2c2nnc(C)o2)c(C)o1 (stereo not drawn) |
| 856 s | Cc1ccc(NC(=O)N2CCC(n3c(C(F)(F)F)nc4cccnc43)CC2)cc1 |
| 979 s | Cc1ccc(NC(=O)N2CCc3nc(-c4ccc(F)cc4)ncc3C2)c(C)c1 |

| RP-LC retention time | Structure (SMILES) |
| --- | --- |
| 608 s | CCNC(=O)N1CCC(c2noc(-c3cnccn3)n2)C1 (stereo not drawn) |
| 543 s | CN1CCN(CCNC(=O)CCc2c(-c3ccc(Br)cc3)nc3ccccn23)CC1 |
| 597 s | Cc1cccc2nnc(N3CCCC(C(=O)NC4CCCC4)C3)n12 (stereo not drawn) |
| 716 s | O=C(Nc1ccc2c(c1)CCCN2C(=O)C1CC1)c1ccccc1[N+](=O)[O-] |
| 605 s | Cc1nn(C)c(C)c1CCCN(C)C(=O)COc1ccc(NC(=O)C2CC2)cn1 |
| 568 s | CCN(CC)c1nc(C(=O)N2CCC(N3CCCCC3)CC2)nc2nc(C)cc(C)c12 |
| 776 s | CCn1c(N2CCCC(C(=O)NCc3ccccc3F)C2)cc(=O)n(C)c1=O (stereo not drawn) |
| 779 s | CC(C)NC(=O)C1CCc2sc(C(=O)N3CCCCC3)cc2C1 (stereo not drawn) |
| 681 s | Cc1ccc(CNC(=O)N2CCC(OC3CCN(Cc4ccccc4)CC3)CC2)cc1 |
| 647 s | CCc1cc(=O)n(CC(=O)NCc2ccccc2)c(N2CCOCC2)n1 |
| 631 s | COCCNC(=O)CC1CCN(C(=O)c2[nH]c(C)cc2C)CC1 |
| 794 s | Cc1nn(CC(=O)NC(C)(C)C)c(C)c1S(=O)(=O)N1CCC(C(=O)N2CCC(C)CC2)CC1 |
| 852 s | CCCCc1nnc(NC(=O)C2CCN(C(=O)c3ccc(Cl)cc3)CC2)s1 |
| 763 s | O=C(NC1CCCC1)c1ccc2c(c1)nc1n2CCN(C2CCCCC2)C1=O |
| 698 s | COCCNC(=O)CSc1cc(N2CCN(c3ccccc3OC)CC2)ncn1 |
| 921 s | CCOc1nccnc1NC1CCN(C(=O)c2cccs2)CC1 |
| 843 s | O=C(Nc1ccc2c(c1)N(C(=O)c1cccs1)CC2)c1ccc2c(c1)OCO2 |

The next lines start with the molecule.

| Structure (SMILES) | RP-LC retention time |
| --- | --- |
| COc1ccc(C2Cn3nnc(-c4nc(-c5ccc(Cl)cc5)no4)c3CO2)cc1 (stereo not drawn) | 1240 s |
| Cn1c(=O)oc2cc(-c3noc(CNS(=O)(=O)c4ccccc4)n3)ccc21 | 805 s |
| CCS(=O)(=O)N1CCc2nc(-c3ccc(OC)cc3)ncc2C1 | 805 s |
| CNC(=O)c1sc2nc(-c3ccc(OC)cc3)c(NC(C)(C)C)n2c1C | 737 s |
| COc1cccc(CN2CN(c3ccc(C)cc3)c3ncccc3S2(=O)=O)c1 | 1110 s |
| O=C(C1=CCN(Cc2ccc(F)cc2)CC1)N1CCN(c2ccccc2Cl)CC1 | 723 s |
| O=C(Cn1nc(S(=O)(=O)c2cccc(F)c2)ccc1=O)N1CCN(c2ccccc2F)CC1 | 885 s |
| Cn1ccc2cc(S(=O)(=O)N3CCCC(C(=O)NCCC4=CCCCC4)C3)ccc21 (stereo not drawn) | 1040 s |
| O=c1c2nc(-c3cccc(Cl)c3)cn2ccn1-c1cccc(F)c1 | 871 s |
| O=C(NC1CCCCC1)N1CCC2(CC1)NCc1ccccc1-n1ccnc12 | 608 s |
| CCN1C(=O)Cc2c(C)nc(-c3ccc(OC)cc3)nc21 | 880 s |
| O=C(NCc1cccs1)c1cccn1Cc1noc(-c2ccc(Cl)cc2)n1 | 1080 s |
| O=C(c1cc2ccccc2[nH]1)N1CCN(C(=O)c2ccc(Br)o2)CC1 | 797 s |
| CCn1cc(S(=O)(=O)N2CCC(c3noc(-c4cccnc4)n3)C2)cn1 (stereo not drawn) | 710 s |
| CCOc1ccc(-n2nnc(C(=O)OC)c2C(=O)OC)cc1 | 882 s |
| CC1CC(=O)Nc2cc(S(=O)(=O)N3CCN(c4ncccn4)CC3)ccc2S1 (stereo not drawn) | 803 s |
| CN(CCc1noc(-c2ccccc2)n1)C(=O)Nc1ccccc1Cl | 943 s |
| CCCCn1c(=O)c2ccccc2n(Cc2nc(-c3ccc(OC)cc3)no2)c1=O | 1160 s |
| CCOc1ccc(CC(=O)NC2CCN(c3cc(-c4ccccc4)[nH]n3)C2)cc1OCC (stereo not drawn) | 721 s |
| O=C(Nc1nc(-c2cc([N+](=O)[O-])cs2)cs1)C1=COCCO1 | 829 s |
| CCCCc1cc(=O)oc2cc(C)cc(OC(C)C(=O)N3CCC4(O)CCCCC4C3)c12 (stereo not drawn) | 952 s |
| O=C(/C=C/c1cccc(S(=O)(=O)Nc2ccccc2)c1)NO | 679 s |
| O=C(c1cccc(-n2cnnn2)c1)N1CCN(Cc2nc(-c3ccc(F)cc3)cs2)CC1 | 666 s |
| Cc1cccc(-n2c(=O)c3c(cc(C)n3C)n(CC(=O)Nc3c(C)cc(C)cc3C)c2=O)c1 | 914 s |
| CCc1ccc(N2C(=O)C3N=NN(Cc4nc(-c5ccc(Br)cc5)no4)C3C2=O)cc1 (stereo not drawn) | 1130 s |
| COc1ccccc1N1CCN(C(=O)Cn2c(N3CCc4ccccc4C3)nc(C)cc2=O)CC1 | 759 s |
| Nc1ccccc1NC(=O)c1ccc(CNc2nccc(-c3cccnc3)n2)cc1 | 664 s |

| Structure (SMILES) | RP-LC retention time |
| --- | --- |
| COc1ccc(CCC(=O)NCCCn2cccc2)cc1 | 757 s |
| CCOc1ccc(C(=O)N2C[C@H](c3nc(-c4ccncc4)no3)[C@@H](C)C2)cc1 | 838 s |
| CCOc1ncccc1CNC(=O)NCc1cccc(OC)c1 | 570 s |
| COCCCNC(=O)CCC(=O)N1CCCn2nc(-c3cn(C)c4ccccc34)cc21 | 670 s |
| O=C(Nc1ccc(F)c(Cl)c1)c1sc2ncccc2c1-n1cccc1 | 1170 s |
| Cc1nc(-c2noc(-c3ccccc3)n2)cn1CC(=O)NCc1cccc(Cl)c1 | 866 s |
| O=C1NCC2(CCN(CCc3ccccc3)CC2)O1 | 579 s |
| CCN(Cc1ccccc1)C(=O)C1CCCN(S(=O)(=O)c2ccc3c(c2)CCCC(=O)N3)C1 (stereo not drawn) | 821 s |
| O=C(Cn1cnc2nc3c(cc2c1=O)CCCC3)Nc1ccc(Br)cc1F | 791 s |
| CCOC(=O)c1cccc(Nc2c(-c3ccc(C(=O)O)cc3)nc3cnccn23)c1 | 726 s |
| COc1ccc(OC)c(NC(=O)CN2C(=O)CC(c3ccc(Cl)cc3)=Nc3cccnc32)c1 | 1040 s |
| O=c1c2cnn(-c3ccc(Br)cc3)c2ncn1Cc1nc(-c2ccc(F)cc2)no1 | 1150 s |
| O=C(CN(CC1CCCO1)C(=O)c1ccc(Cl)cc1)N1CCNCC1 (stereo not drawn) | 605 s |
| COc1ccc(C2(C(=O)N3C[C@@H](CO)[C@H](c4ccccn4)C3)CC2)cc1 | 605 s |
| CC[C@H](Nc1ncnc2nc[nH]c12)c1nc2cccc(F)c2c(=O)n1-c1ccccc1 | 714 s |
| O=C(Cn1cc(C(=O)c2ccccc2)c(=O)c2cc(F)ccc21)Nc1ccc2c(c1)OCO2 | 836 s |
| CCOc1ccc(NC(=O)Cn2nc3c(Oc4ccccc4C)nccn3c2=O)cc1 | 870 s |
| Cc1nnc(-c2ccc3ccn(CC(=O)Nc4ccc(F)cc4F)c3c2)o1 | 801 s |
| COc1ccc(Nc2nc(-c3nnn(-c4cc(Cl)c(OC)cc4OC)c3C)ns2)cc1 | 1020 s |
| OCCN(Cc1ccccc1)CC(O)COc1ccc(Cl)cc1Cl (stereo not drawn) | 602 s |
| CCCn1nnc2cc(-c3noc(C4CC(=O)N(c5ccc(C)cc5)C4)n3)ccc21 (stereo not drawn) | 964 s |
| CSc1ccc(CNC(=O)Cc2nnc(-c3ccc4ncccc4c3)o2)cc1 | 716 s |
| CCCS(=O)(=O)c1nc2ccc(NS(=O)(=O)Cc3cc(F)cc(F)c3)cc2s1 | 938 s |
| Cc1ccc(-c2noc(Cn3ccn(-c4ccccc4)c(=O)c3=O)n2)cc1C | 897 s |
| CS(=O)(=O)N1CCN(C(=O)CCc2csc(NC(=O)c3ccc(F)cc3)n2)CC1 | 666 s |
| O=C(Nc1ccc(Cn2cnc(C(=O)NCc3ccc(F)cc3)c2)cc1)c1cccc(F)c1 | 769 s |
| CCN1c2ccc(F)cc2C(=O)NC12CCN(C(=O)c1cc(OC)cc(OC)c1)CC2 | 782 s |
